Data as given in ChEMBL document CHEMBL1201862, “PubChem BioAssay data set” (2004).
Values joined by “and” are separate entries in the source; they are usually repeats but may differ in a detail not shown here. Equal entries are not always repeated. Structures can show the parent of a compound that is named as a salt. Active and inactive are the calls of the source.

Columns and labels:
[1] = Dose-response inhibition of insulin secretion in a rat insulinoma line at 5 mM glucose (AID 1117331); type: functional, cell-based; conditions: INS-1E
cells = type: functional, cell-based; conditions: INS-1E
H9c2 = assay: cells; type: functional, cell-based; conditions: Rattus norvegicus, H9c2, Myocardium;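 further: confirmatory concentration-response retest of ultra-high-throughput screening hits for modulation of myocardial damage; cell death induced by hydrogen peroxide oxidative stress; compound pretreatment for 60 min then peroxide exposure for 2 h; potency is for protecting the cells against peroxide damage rather than for killing them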
[2] = target: Glucose-6-phosphate 1-dehydrogenase (Homo sapiens, UniProt P11413); assay: human G6PD enzyme inhibitors, dose response, selectivity assay for P. falciparum G6PD inhibitor project, biochemical, fluorescence (AID 504792); type: functional
[3] = target: T1, Voltage-gated N-type calcium channel alpha-1B subunit/Amyloid beta A4 precursor protein-binding family A member 1 (Homo sapiens, UniProt Q00975+Q02410); type: protein assay
[4] = target: Bifunctional protein GlmU (Mycobacterium tuberculosis, UniProt P9WMN3); assay: Inhibitors of Mycobacterial Glucosamine-1-phosphate acetyl transferase (GlmU). Secondary screen.; parameters: species or system Mycobacterium tuberculosis H37Rv
[5] = target: T1, Voltage-gated N-type calcium channel alpha-1B subunit/Amyloid beta A4 precursor protein-binding family A member 1; type: protein assay; remark: listed apart in the source
[6] = target: Eukaryotic translation initiation factor 4E (Mus musculus, UniProt P63073); assay: eIF4E–eIF4G protein interaction inhibitors, dose response, biochemical, TR-FRET (AID 855); type: functional;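 further: potency for disrupting eIF4E binding to eIF4GI seen as loss of FRET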
[7] = growth suppression of beta-catenin-knockout colon cells, dose response, cell-based, HCT116, human colon tumor (AID 1045); type: functional;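 further: HCT116 colon tumor cells with beta catenin knocked out; cells exposed to compound for 60 hours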
Estrogen receptor beta = Estrogen receptor beta (Homo sapiens, UniProt Q92731); assay: ERβ–SRC-3 coactivator interaction inhibitors, confirmation, orthogonal assay, biochemical, ELISA, streptavidin-HRP readout (AID 1060)
Bcl-2-related protein A1 [8] = target: T2, Bcl-2-related protein A1 (Mus musculus, UniProt Q07440); assay: Bfl-1 binding inhibitors, SAR follow-up, biochemical, fluorescence polarization (AID 1070)
T2 sequence (Q07440 whole entry): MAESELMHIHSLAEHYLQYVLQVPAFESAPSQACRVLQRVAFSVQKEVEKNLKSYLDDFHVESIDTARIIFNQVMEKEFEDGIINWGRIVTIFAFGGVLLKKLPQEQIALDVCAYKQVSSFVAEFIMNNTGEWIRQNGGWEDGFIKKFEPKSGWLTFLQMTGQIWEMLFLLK

Bcl-2-related protein A1 [9] = target: T2, Bcl-2-related protein A1; assay: Bfl-1 inhibitors, primary screen, biochemical, fluorescence polarization, FITC-Bid, mouse (AID 432)
[10] = growth suppression of PTEN-null colon cells, dose response, cell-based, HCT116 PTEN knockout (AID 1047); type: functional;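 further: HCT116 colon tumor cells with PTEN knocked out; cells exposed to compound for 60 hours before readout; potency for loss of cell viability measured by luminescence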
Bcl-2-related protein A1 [11] = target: T2, Bcl-2-related protein A1; assay: Bfl-1 inhibitors blocking BH3 peptide binding, confirmation, biochemical, TR-FRET, mouse Bfl-1 (AID 621);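 further: TR-FRET binding of GST-Bfl-1 to FITC-labelled Bid peptide via terbium antibody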
[12] = target: Glyceraldehyde-3-phosphate dehydrogenase (Homo sapiens, UniProt P04406)
[13] = target: Ras and Rab interactor 1/Tyrosine-protein kinase ABL1 (Homo sapiens, UniProt P00519+Q13671); type: functional;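 further: biochemical TR-FRET dose-response test measuring inhibition of binding between Rin1 and Abl proteins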
[14] = A549 cell cytotoxicity, dose response, CellTiter-Glo luminescence, dry powder, set 17 (AID 1117284); type: functional, cell-based
14-3-3 protein gamma = 14-3-3 protein gamma (Homo sapiens, UniProt P61981); assay: modulators of 14-3-3 gamma client binding – dose response (AID 711); type: functional
[15] = target: Ubiquitin carboxyl-terminal hydrolase BAP1 (Homo sapiens, UniProt Q92560); assay: BAP1 deubiquitinase inhibitors, dose response, biochemical (AID 714); type: functional
Chain of Ubiquitin carboxyl-terminal hydrolase BAP1 (Q92560 whole entry): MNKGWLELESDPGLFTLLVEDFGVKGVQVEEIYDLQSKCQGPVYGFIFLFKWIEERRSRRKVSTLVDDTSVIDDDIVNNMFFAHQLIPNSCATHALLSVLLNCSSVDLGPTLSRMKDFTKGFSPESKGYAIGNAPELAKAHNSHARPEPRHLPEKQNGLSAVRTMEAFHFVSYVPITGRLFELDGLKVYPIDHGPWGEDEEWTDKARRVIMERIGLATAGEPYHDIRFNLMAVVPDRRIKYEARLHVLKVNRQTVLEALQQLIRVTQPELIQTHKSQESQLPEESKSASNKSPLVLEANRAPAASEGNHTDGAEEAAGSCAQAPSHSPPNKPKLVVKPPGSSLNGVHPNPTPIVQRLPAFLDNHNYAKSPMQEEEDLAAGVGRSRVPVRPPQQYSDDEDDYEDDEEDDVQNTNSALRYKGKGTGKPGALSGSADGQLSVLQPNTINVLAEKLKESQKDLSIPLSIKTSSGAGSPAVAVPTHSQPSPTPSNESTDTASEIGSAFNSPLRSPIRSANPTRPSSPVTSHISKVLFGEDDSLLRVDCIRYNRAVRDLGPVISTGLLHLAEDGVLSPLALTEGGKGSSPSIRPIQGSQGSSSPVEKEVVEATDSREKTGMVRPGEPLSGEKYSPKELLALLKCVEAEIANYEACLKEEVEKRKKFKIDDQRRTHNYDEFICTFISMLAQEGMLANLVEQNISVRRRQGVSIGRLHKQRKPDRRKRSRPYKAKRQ

T1 sequence (Q00975 whole entry): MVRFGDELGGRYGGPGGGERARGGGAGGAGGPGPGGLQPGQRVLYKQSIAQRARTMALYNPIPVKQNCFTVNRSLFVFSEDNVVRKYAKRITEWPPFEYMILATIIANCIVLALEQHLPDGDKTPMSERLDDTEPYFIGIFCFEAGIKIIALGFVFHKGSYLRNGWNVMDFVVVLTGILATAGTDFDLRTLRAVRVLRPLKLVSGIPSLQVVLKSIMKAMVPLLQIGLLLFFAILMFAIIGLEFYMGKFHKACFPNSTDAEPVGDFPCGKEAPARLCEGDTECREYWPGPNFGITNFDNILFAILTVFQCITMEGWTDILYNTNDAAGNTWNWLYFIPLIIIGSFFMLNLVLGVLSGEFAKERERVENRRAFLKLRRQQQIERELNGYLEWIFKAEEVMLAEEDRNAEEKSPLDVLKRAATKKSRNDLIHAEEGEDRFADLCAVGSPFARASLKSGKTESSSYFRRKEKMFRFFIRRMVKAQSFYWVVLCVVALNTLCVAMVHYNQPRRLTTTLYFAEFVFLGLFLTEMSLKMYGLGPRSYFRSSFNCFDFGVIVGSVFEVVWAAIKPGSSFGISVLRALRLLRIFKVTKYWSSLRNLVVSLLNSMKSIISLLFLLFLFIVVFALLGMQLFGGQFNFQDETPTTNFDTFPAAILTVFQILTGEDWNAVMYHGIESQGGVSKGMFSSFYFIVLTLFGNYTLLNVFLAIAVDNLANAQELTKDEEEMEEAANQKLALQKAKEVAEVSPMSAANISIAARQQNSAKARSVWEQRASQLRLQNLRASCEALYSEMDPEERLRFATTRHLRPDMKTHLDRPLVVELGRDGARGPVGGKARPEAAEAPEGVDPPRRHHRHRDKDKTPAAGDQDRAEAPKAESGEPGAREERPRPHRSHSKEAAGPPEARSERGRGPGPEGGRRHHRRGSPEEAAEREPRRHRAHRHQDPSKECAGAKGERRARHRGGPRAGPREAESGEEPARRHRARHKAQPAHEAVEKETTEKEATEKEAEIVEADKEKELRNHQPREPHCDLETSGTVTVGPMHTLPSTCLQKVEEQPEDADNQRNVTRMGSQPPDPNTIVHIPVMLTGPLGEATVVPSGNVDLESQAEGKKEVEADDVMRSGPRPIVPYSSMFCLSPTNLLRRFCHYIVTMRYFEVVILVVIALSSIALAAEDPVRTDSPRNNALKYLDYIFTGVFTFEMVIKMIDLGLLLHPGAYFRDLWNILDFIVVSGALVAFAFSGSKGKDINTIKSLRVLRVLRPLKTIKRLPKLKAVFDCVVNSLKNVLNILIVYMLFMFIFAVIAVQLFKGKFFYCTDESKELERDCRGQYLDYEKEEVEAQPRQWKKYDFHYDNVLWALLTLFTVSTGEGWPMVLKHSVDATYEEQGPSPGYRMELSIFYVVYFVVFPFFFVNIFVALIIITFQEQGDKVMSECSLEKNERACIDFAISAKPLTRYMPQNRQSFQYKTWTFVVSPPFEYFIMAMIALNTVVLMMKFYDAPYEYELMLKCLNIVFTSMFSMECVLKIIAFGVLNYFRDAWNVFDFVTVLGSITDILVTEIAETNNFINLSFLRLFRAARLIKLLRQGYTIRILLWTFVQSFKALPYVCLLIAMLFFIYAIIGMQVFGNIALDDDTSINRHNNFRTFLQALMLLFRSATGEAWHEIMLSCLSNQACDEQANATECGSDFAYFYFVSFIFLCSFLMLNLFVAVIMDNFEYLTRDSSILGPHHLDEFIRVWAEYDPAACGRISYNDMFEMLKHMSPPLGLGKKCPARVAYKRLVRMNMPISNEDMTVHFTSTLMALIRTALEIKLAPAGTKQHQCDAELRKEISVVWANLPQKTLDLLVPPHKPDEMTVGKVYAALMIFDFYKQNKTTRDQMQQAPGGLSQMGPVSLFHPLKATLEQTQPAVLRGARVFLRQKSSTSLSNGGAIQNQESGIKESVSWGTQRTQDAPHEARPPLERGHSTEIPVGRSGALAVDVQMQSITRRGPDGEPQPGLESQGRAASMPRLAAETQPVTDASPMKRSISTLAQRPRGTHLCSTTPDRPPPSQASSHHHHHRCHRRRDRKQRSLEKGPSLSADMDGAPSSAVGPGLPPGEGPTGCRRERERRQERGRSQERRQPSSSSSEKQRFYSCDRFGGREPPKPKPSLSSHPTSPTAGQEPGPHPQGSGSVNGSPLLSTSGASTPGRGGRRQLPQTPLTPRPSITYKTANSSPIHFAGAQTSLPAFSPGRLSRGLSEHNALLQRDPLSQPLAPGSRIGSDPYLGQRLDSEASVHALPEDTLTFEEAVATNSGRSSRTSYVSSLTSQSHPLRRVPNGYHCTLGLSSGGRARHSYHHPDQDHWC
T1 sequence (Q02410 whole entry): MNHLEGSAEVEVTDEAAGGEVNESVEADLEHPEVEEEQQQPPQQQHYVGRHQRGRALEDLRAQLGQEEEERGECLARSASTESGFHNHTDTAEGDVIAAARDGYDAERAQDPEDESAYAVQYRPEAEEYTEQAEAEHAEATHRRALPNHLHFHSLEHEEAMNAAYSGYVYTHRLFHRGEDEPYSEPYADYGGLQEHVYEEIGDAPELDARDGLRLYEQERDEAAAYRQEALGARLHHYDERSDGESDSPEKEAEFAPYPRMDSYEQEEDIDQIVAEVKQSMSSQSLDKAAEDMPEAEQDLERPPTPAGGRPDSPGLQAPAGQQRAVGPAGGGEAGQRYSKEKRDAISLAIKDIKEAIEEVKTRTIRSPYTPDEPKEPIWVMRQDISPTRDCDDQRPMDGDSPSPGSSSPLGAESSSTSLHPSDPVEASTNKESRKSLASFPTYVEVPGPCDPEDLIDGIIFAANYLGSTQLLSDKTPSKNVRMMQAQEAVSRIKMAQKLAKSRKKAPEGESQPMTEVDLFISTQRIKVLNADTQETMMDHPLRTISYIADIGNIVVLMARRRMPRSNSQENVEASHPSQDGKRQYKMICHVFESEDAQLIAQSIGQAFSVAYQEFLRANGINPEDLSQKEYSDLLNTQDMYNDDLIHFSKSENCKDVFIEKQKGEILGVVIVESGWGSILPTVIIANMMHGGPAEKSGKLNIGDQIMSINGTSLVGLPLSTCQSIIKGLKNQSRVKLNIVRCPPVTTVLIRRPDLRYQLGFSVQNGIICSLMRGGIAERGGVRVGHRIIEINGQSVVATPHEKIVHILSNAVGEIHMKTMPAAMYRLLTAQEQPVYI
Chain of Bifunctional protein GlmU (P9WMN3 whole entry): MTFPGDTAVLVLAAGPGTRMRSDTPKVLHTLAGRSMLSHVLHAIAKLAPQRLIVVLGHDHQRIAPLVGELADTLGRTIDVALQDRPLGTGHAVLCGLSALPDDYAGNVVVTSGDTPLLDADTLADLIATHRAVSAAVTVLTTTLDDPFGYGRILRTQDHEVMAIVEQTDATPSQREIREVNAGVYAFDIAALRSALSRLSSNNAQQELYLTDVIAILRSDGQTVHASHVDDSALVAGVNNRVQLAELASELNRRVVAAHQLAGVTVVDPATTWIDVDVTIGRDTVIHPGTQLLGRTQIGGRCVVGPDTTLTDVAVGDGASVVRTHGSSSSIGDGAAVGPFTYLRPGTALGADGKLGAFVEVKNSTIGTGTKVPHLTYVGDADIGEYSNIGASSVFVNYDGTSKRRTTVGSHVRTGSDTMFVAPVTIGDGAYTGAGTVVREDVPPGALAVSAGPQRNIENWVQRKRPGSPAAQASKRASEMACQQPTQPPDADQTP
Chain of Eukaryotic translation initiation factor 4E (P63073 whole entry): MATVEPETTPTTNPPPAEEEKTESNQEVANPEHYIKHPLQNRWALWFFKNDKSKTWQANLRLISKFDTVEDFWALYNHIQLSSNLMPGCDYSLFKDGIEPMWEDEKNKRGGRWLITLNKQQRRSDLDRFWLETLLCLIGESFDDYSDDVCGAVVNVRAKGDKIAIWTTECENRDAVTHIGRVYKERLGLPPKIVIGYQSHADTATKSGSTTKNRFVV
Chain of Glyceraldehyde-3-phosphate dehydrogenase (P04406 whole entry): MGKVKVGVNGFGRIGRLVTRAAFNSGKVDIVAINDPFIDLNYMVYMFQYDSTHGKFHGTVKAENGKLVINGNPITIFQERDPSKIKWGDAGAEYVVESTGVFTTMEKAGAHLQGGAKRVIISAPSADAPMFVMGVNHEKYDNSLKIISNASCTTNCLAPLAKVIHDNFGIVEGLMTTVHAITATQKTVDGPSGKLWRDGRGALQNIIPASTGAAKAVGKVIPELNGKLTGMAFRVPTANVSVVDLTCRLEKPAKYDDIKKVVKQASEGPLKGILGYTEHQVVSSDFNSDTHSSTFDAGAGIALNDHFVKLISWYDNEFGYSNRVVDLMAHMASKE

**Q.** With NCc1ccc(S(N)(=O)=O)cc1 [MAFENIDE HYDROCHLORIDE] as the compound, how does the IC50 [1] read?
**A.** Its IC50 is > 33.3 µM (inactive).

**Q.** What about the IC50 (cells) of the same compound?
**A.** Its IC50 is > 33.3 µM (inactive).

**Q.** What does the source list for O=C1Nc2ccccc2C(=O)C1(Cl)Cc1ccccc1 (centres undefined)?
**A.** IC50 (H9c2): 17.2 µM (active); IC50 [2]: > 80 µM (inactive); IC50 [3]: > 50 µM (inactive); IC50 [4]: 62.9 µM (active); IC50 [5]: 23.3 µM (active); IC50 [6]: > 64 µM (inactive)

**Q.** With CC1CCN(Cc2ccc(NC(=O)C3CCN(c4nnc(-n5cccc5)s4)CC3)cc2)CC1 as the compound, how does the EC50 [7] read?
**A.** Its EC50 is 61.6 µM (active).

**Q.** And the IC50 (Estrogen receptor beta)?
**A.** The IC50 was 1.1 µM (not active).

**Q.** What about the IC50 (Bcl-2-related protein A1 [8]) of the same compound?
**A.** The IC50 was 20.8 µM (active).

**Q.** And the IC50 (Bcl-2-related protein A1 [9])?
**A.** Its IC50 is > 100 µM (not active).

**Q.** And the EC50 [10]?
**A.** The EC50 was 21.4 µM (active).

**Q.** And the IC50 (Bcl-2-related protein A1 [11])?
**A.** Its IC50 is 35.1 µM (active) and > 100 µM (not active).

**Q.** What about the IC50 [12] of the same compound?
**A.** The IC50 was > 100 µM (not active).

**Q.** With C[C@@H]1CN([C@H](C)CO)S(=O)(=O)c2ccc(C#C[C@@H](C)O)cc2O[C@@H]1CN(C)Cc1ccc(-c2ccccc2)cc1 as the compound, how does the IC50 [13] read?
**A.** The IC50 was 9.68 µM (active).

**Q.** What about the AC50 [14] of the same compound?
**A.** Its AC50 is 36.1 µM (active).

**Q.** For OC(CN1CCOCC1)CN(c1ccccc1)c1ccccc1 (centres undefined), which IC50 (14-3-3 protein gamma) is on record?
**A.** The IC50 was > 50 µM (not active).

**Q.** With N#Cc1c(NC(=O)CSc2ncnc3c2cnn3-c2ccccc2Cl)sc2c1CCCC2 as the compound, how does the IC50 [15] read?
**A.** The IC50 was > 50 µM (not active).
